Laboratory results: patent US6753424B1, “Conjugates of DNA interacting groups with steroid hormones for use as nucleic acid transfection agents” (priority 1998, dated 2004)

How the values were obtained:
[1] = system: GR-GFP chimera; test: Nuclear Transfer Induction assay (NTI), monourethane ligands, HeLa cells; format: cell-based; conditions: 1 hr
Experimental: Conditions: HeLa cells are transiently transfected by CaPO4 with an expression vector encoding a GR-GFP chimera (5 μg in transfection cocktail, 4 cm diameter dishes, DMEM with 3% FCS). After 24 hour expression, ligand is added for 1 hr and cells are fixed with formaldehyde (5 min 4° C.) and inspected by fluorescence microscopy. Fluorescent cells are counted and divided into different classes according to ‘cytoplasmic’ (C) versus ‘nuclear’ (N) localisation of fluorescence.
First column: “Conditions”: Name of compounds added (marked at top: ‘//ligand’), and their concentration (in parentheses) and assay number (01 through 21).
Values are given as percentage of cells displaying the corresponding localisatidn, within each tested condition the sum is 100%.

[2] = system: GR-GFP chimera; test: Nuclear Transfer Induction assay (NTI), diurethane ligands, CV-1 cells; format: cell-based; conditions: 4 hr
Experimental: Conditions: CV-1 cells are transiently transfected with DOTAP (Boehringer-Mannheim) with an expression vector encoding a GR-GFP chimera (see 8.1). After 36 hours expression, ligand is added for 4 hr and cells are fixed and counted as given in 8.1.

Row | Compound | C < N, percentage of cells ([1]; ligand 1.10-6M) [%] | C << N, percentage of cells ([1]; ligand 1.10-6M) [%] | C = N, percentage of cells ([1]; ligand 1.10-6M) [%] | C > N, percentage of cells ([1]; ligand 1.10-6M) [%] | C >> N, percentage of cells ([1]; ligand 1.10-6M) [%] | C < N, percentage of cells ([1]; ligand 1.10-7M) [%] | C << N, percentage of cells ([1]; ligand 1.10-7M) [%] | C = N, percentage of cells ([1]; ligand 1.10-7M) [%] | C > N, percentage of cells ([1]; ligand 1.10-7M) [%] | C >> N, percentage of cells ([1]; ligand 1.10-7M) [%] | C < N, percentage of cells ([2]; ligand 5.10-6M) [%] | C << N, percentage of cells ([2]; ligand 5.10-6M) [%] | C = N, percentage of cells ([2]; ligand 5.10-6M) [%] | C > N, percentage of cells ([2]; ligand 5.10-6M) [%] | C >> N, percentage of cells ([2]; ligand 5.10-6M) [%] | C < N, percentage of cells ([2]; ligand 5.10-7M) [%] | C << N, percentage of cells ([2]; ligand 5.10-7M) [%] | C = N, percentage of cells ([2]; ligand 5.10-7M) [%] | C > N, percentage of cells ([2]; ligand 5.10-7M) [%] | C >> N, percentage of cells ([2]; ligand 5.10-7M) [%] | also measured
1 | COC(=O)CCNC(=O)OCC(=O)[C@@]1(O)CCC2C3CCC4=CC(=O)CCC4(C)C3C(O)CC21C (some centres unmarked) [CL-C3-COOCH3, 2-carboxymethyl-ethyl-1-carboxamicacid-cortisol-21-ester] | 55 | 42 | 2 | 1 | 0 | 50 | 18 | 21 | 1 | 0 | – | – | – | – | – | – | – | – | – | – | –
2 | CC12CCC(=O)C=C1CCC1C2C(O)CC2(C)C1CC[C@]2(O)C(=O)COC(=O)NCCC(=O)O (some centres unmarked) [CL-C3-COOH, 2-carboxy-ethyl-1-carboxamicacid-cortisol-21-ester] | 13 | 0 | 85 | 2 | 0 | 2 | 0 | 43 | 55 | 0 | – | – | – | – | – | – | – | – | – | – | –
3 | COC(=O)CCCCCCCCCCNC(=O)OCC(=O)[C@@]1(O)CCC2C3CCC4=CC(=O)CCC4(C)C3C(O)CC21C (some centres unmarked) [CL-C11-COOCH3, 10-carboxymethyl-n-decy-1-carboxamicacid-cortisol-21-ester] | 60 | 13 | 24 | 3 | 0 | 20 | 0 | 55 | 20 | 5 | – | – | – | – | – | – | – | – | – | – | –
4 | COC(=O)CCNC(=O)OCC(=O)[C@@]1(O)[C@H](C)CC2C3CCC4=CC(=O)C=CC4(C)[C@@]3(F)C(O)CC21C (some centres unmarked) [DEX-C3-COOCH3, 2-carboxymethyl-ethyl-1-carboxamicacid-dexamethasone-21-ester] | – | – | – | – | – | 25 | 75 | 0 | 0 | 0 | – | – | – | – | – | – | – | – | – | – | C < N, percentage of cells ([1]; ligand 1.10-8M): 22%; C << N, percentage of cells ([1]; ligand 1.10-8M): 78%; C = N, percentage of cells ([1]; ligand 1.10-8M): 0%; C > N, percentage of cells ([1]; ligand 1.10-8M): 0%; C >> N, percentage of cells ([1]; ligand 1.10-8M): 0%
5 | CC1CC2C3CCC4=CC(=O)C=CC4(C)C3(F)C(O)CC2(C)C1(O)C(=O)COC(=O)NCCOC(=O)NCCCNCCCCNCCCN (centres unmarked) [DEX-C4-Sn] | – | – | – | – | – | – | – | – | – | – | 27.6 | 69.5 | 2.9 | 0 | 0 | 4.6 | 0.6 | 67.4 | 15.4 | 12 | C < N, percentage of cells ([2]; ligand 5.10-8M): 1.1%; C << N, percentage of cells ([2]; ligand 5.10-8M): 0%; C = N, percentage of cells ([2]; ligand 5.10-8M): 43.3%; C > N, percentage of cells ([2]; ligand 5.10-8M): 35.8%; C >> N, percentage of cells ([2]; ligand 5.10-8M): 19.8%; C < N, percentage of cells ([2]; ligand 5.10-9M): 0%; C << N, percentage of cells ([2]; ligand 5.10-9M): 0%; C = N, percentage of cells ([2]; ligand 5.10-9M): 28.5%; C > N, percentage of cells ([2]; ligand 5.10-9M): 43.8%; C >> N, percentage of cells ([2]; ligand 5.10-9M): 27.7%
6 | Cc1oc2c(C)c3oc(=O)cc(C)c3cc2c1CNC(=O)OCCCCCCNC(=O)OCC(=O)[C@@]1(O)[C@H](C)CC2C3CCC4=CC(=O)C=CC4(C)[C@@]3(F)C(O)CC21C (some centres unmarked) [DEX-C6-Pso] | – | – | – | – | – | – | – | – | – | – | 10 | 90 | 0 | 0 | 0 | 6 | 94 | 0 | 0 | 0 | C < N, percentage of cells ([2]; ligand 5.10-8M): 29.4%; C << N, percentage of cells ([2]; ligand 5.10-8M): 60.8%; C = N, percentage of cells ([2]; ligand 5.10-8M): 9.8%; C > N, percentage of cells ([2]; ligand 5.10-8M): 0%; C >> N, percentage of cells ([2]; ligand 5.10-8M): 0%; C < N, percentage of cells ([2]; ligand 5.10-9M): 38.3%; C << N, percentage of cells ([2]; ligand 5.10-9M): 22.6%; C = N, percentage of cells ([2]; ligand 5.10-9M): 35.7%; C > N, percentage of cells ([2]; ligand 5.10-9M): 3.5%; C >> N, percentage of cells ([2]; ligand 5.10-9M): 0%
7 | COC(=O)CCCCCCCCCCNC(=O)OCC(=O)[C@@]1(O)[C@H](C)CC2C3CCC4=CC(=O)C=CC4(C)[C@@]3(F)C(O)CC21C (some centres unmarked) [DEX-C11-COOCH3, 10-carboxymethyl-n-decyl-1-carboxamicacid-dexamethasone-21-ester] | 50 | 45 | 5 | 0 | 0 | 61 | 7 | 29 | 3 | 0 | – | – | – | – | – | – | – | – | – | – | –
8 | Cc1oc2c(C)c3oc(=O)cc(C)c3cc2c1CNC(=O)OCCCCCCCCCCCNC(=O)OCC(=O)[C@@]1(O)[C@H](C)CC2C3CCC4=CC(=O)C=CC4(C)[C@@]3(F)C(O)CC21C (some centres unmarked) [DEX-C11-Pso] | – | – | – | – | – | – | – | – | – | – | 53.1 | 45 | 1.9 | 0 | 0 | 14.8 | 0 | 58.3 | 25.7 | 1.3 | C < N, percentage of cells ([2]; ligand 5.10-8M): 1.9%; C << N, percentage of cells ([2]; ligand 5.10-8M): 0%; C = N, percentage of cells ([2]; ligand 5.10-8M): 52.9%; C > N, percentage of cells ([2]; ligand 5.10-8M): 37.1%; C >> N, percentage of cells ([2]; ligand 5.10-8M): 8.1%; C < N, percentage of cells ([2]; ligand 5.10-9M): 3.6%; C << N, percentage of cells ([2]; ligand 5.10-9M): 0%; C = N, percentage of cells ([2]; ligand 5.10-9M): 34.2%; C > N, percentage of cells ([2]; ligand 5.10-9M): 52.9%; C >> N, percentage of cells ([2]; ligand 5.10-9M): 9.4%
